Drawing on PubChem BioAssay (NCI), this text covers GI50 and TGI for 13 molecules.

Common to all, as to experiment: growth of human tumour cells (NCI), 48 h
For test [1], the system named is BT-549 breast.
Test [2] deals with CCRF-CEM leukemia.
Test [3] relates to HT29 colon.
For test [4], the system named is K-562 leukemia.
The subject of test [5] is M14 melanoma.
Test [6] has as its system MOLT-4 leukemia.
The test system of test [7] is NCI-H226 lung.
Test [8] concerns RPMI-8226 leukemia.
In test [9] the test system is SK-MEL-28 melanoma.
The subject of test [10] is SK-MEL-5 melanoma.

Several values for one entry are separate records, joined by “and”; a condition that tells them apart may be missing. Equal entries are not always repeated.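 48-hour exposure; five concentrations; linearly interpolated endpoints. At the GI50, growth is halved. The concentration for full growth arrest is given as TGI.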

As to `Clc1ccc2c(c1)N(C1CCCN(Cc3ccccc3)C1)c1ccccc1S2` (stereo unspecified), the GI50 in test [1] is 7390 nM; in test [2], 4890 nM; in [3], 11500 nM; in [4], 3190 nM; in test [5], 2000 nM; in test [6], 16600 nM. Also, the GI50 was 22600 nM in [7], 3910 nM in test [8], 7690 nM in test [9] and 5710 nM in test [10]. Moreover, the TGI in test [1] was 77000 nM; in test [2], above 100000 nM; in test [3], above 100000 nM; in test [4], above 100000 nM; in test [5] it was 4410 nM; in test [6] it was above 100000 nM. Also, the TGI in [7] is above 100000 nM; in test [8], above 100000 nM; in [9] it was above 100000 nM; in [10], 25300 nM.

As for `CNC(=O)c1c(F)cccc1Nc1nc(Nc2cc3c(cc2OC)CCN3C(=O)CN(C)C)nc2[nH]ccc12`, the GI50 was 19800 nM in test [1]; 2100 nM in [2]; 64.3 nM in [3]; 2580 nM in test [4]; 1640 nM in [5]; 3010 nM in test [6]. The GI50 in test [7] is 16200 nM; in test [8], 4940 nM; in [9], 1570 nM; in test [10] it was 5670 nM. In addition, the TGI was 48200 nM in test [1]; 5730 nM in test [2]; 1660 nM in [3]; 6410 nM in test [4]; 3370 nM in test [5]; above 24700 nM in test [6]. Besides, the TGI came to 43600 nM in [7], 17400 nM in test [8], 2970 nM in test [9] and 23100 nM in [10].

For the molecule `NC(Cc1c[nH]c2ccc([N+](=O)[O-])cc12)C(=O)O` (stereo unspecified), the TGI in test [1], in test [2], in test [3], in test [4], in [5] and in test [6] was above 100000 nM each time. Also, the TGI in test [7], in [8], in test [9] and in test [10] was above 100000 nM throughout.

Turning to `COc1ccccc1[As]=[As]c1ccccc1OC` (stereo unspecified), the GI50 is 58.2 nM in test [1]; 26 nM in test [2]; 40.5 nM in test [3]; 32.4 nM in [4]; 40.7 nM in test [5]; 38.2 nM in [6]. Moreover, the GI50 in [7] was 72.3 nM; in test [8] it was 27.8 nM; in test [9] it was 43.7 nM; in test [10] it was 46.8 nM. The TGI in test [1] came to 182 nM; in test [2], 113 nM; in [3], 174 nM; in test [5], 147 nM; in test [6] it was 204 nM; in test [7] it was 210 nM. The results for the TGI in test [8], in test [9] and in [10] were 83.2 nM, 153 nM and 163 nM, respectively.

Turning to `N#Cc1nc(C#N)c(Sc2ccccc2)c(Sc2ccccc2)c1Sc1ccccc1`, the GI50 in [1] was 210 nM; in [2] it was 417 nM; in test [3], 407 nM; in test [4], 1550 nM; in test [6] it was 317 nM; in test [7], 2420 nM. For the same molecule, the GI50 is 638 nM in test [8], 1480 nM in [9] and 1310 nM in test [10]. In addition, the TGI in test [1] is 4270 nM; in [2], above 100000 nM; in test [4], above 29900 nM; in test [8], above 28300 nM; in test [9], 2890 nM; in test [10], 2690 nM.

With `COS(C)(=O)=O`, the TGI in test [1], in test [2], in test [3], in test [4], in test [5] and in test [6] was above 2000 nM throughout. Besides, the TGI in [7], in [8] and in test [9] was above 2000 nM throughout.

Consider `C#CC1(O)C(COP(=O)(O)OCC2OC(n3cc(F)c(=O)[nH]c3=O)CC2O)OC(n2ccc(N)nc2=O)C1O` (stereo unspecified), for which the GI50 in [1] was below 19 nM; in [2] it was below 10 nM; in test [3], below 10 nM; in [4], below 10 nM; in [5], below 20.1 nM; in test [6] it was below 10 nM. Also, the GI50 in test [7], in [8], in test [9] and in [10] was below 10 nM in each case. Also, the TGI was 2520 nM in test [1]; above 100000 nM in [3]; above 100000 nM in test [4]; 740 nM in test [5]; 12.4 nM in [6]; above 100000 nM in test [7]. Further, the TGI in [8] stood at 119 nM; in test [9], 378 nM; in [10] it was 41.2 nM.

Take `CC(=O)Nc1cc2cc(NS(=O)(=O)c3ccc(Cl)c(Cl)c3)ccc2oc1=O`: the TGI in test [1], in test [2], in [3], in test [4], in test [5] and in [6] was above 100000 nM each time. The TGI in test [7] is above 100000 nM; in test [8], above 100000 nM; in test [9], above 100000 nM; in test [10], 58600 nM.

On to `c1ccc(Oc2ccc(Nc3ncc(-c4ccccc4)o3)cc2)cc1`, for which the GI50 in test [1], in test [2], in test [3], in [4], in test [5] and in [6] was above 25000 nM in each case. In addition, the GI50 in [7], in [8], in test [9] and in test [10] was above 25000 nM throughout. In addition, the TGI in [1], in test [2], in test [3], in test [4], in [5] and in test [6] was above 25000 nM in each case. Besides, the TGI in test [7], in test [8], in [9] and in test [10] was above 25000 nM throughout.

For `CC(=O)Nc1ccc(S(=O)(=O)N=S(C)C)cc1`, the TGI in [1], in [2], in [3], in test [4], in [5] and in test [6] was above 100000 nM throughout. For the same molecule, the TGI in test [7], in [8] and in [9] was above 100000 nM throughout.

On to `CS(=O)(=O)c1cccc(Nc2ncc3cc(-c4ccccc4Cl)ccc3n2)c1`, for which the GI50 was 2110 nM in test [1]; 1470 nM in test [2]; 1010 nM in test [3]; 165 nM in [4]; 1150 nM in test [5]; 1420 nM in test [6]. Moreover, the GI50 is 2550 nM in [7], 1470 nM in test [8], 1770 nM in test [9] and 1080 nM in test [10]. The TGI in [1] was 27800 nM; in test [2], above 33300 nM; in test [3], 19100 nM; in test [4], above 33300 nM; in [5], above 33300 nM; in [6], 14600 nM. Moreover, the TGI in test [7] was 21500 nM; in test [8] it was 21400 nM; in test [9], above 33300 nM; in [10] it was 4040 nM.

Regarding `CC[C@H](C)[C@H](NC(=O)[C@H]1CCCCN1C)C(=O)N(C)[C@H](C[C@@H](OC(C)=O)c1cccc(C(=O)N[C@@H](Cc2ccccc2)C[C@H](C)C(=O)O)n1)C(C)C`, the GI50 in [1] is 2.5 nM; in test [2] it was 0.818 nM and 2.5 nM; in test [3] it was 1.68 nM; in [4], 0.539 nM and 2.5 nM; in test [5] it was below 2.5 nM; in test [6], 3.64 nM and 2.5 nM. In addition, the GI50 in test [8] was 0.816 nM and 2.5 nM; in test [10], 0.482 nM and 2.5 nM. The TGI in test [1] is 11.6 nM; in test [2], above 25000 nM; in test [4], above 25000 nM; in [5], below 2.5 nM; in test [6], above 25000 nM; in test [7] it was above 25000 nM. For the same molecule, the TGI in test [8] was above 25000 nM; in test [9], above 25000 nM; in test [10], 19.3 nM and 2.79 nM.

In the case of `COc1cc(-c2nc3ccccc3o2)cc(CN2CCCCC2)c1O`, the GI50 in [1] was 2450 nM; in [2], 4060 nM; in test [4], 8180 nM; in test [5], 1480 nM; in [6], 4990 nM; in test [7], 1850 nM. The figures for the GI50 in test [8], in [9] and in test [10] were 2850 nM, 1970 nM and 1090 nM, respectively. Moreover, the TGI in [1] is 9160 nM; in test [2], above 100000 nM; in test [4], above 100000 nM; in test [5], 3260 nM; in test [6], 37400 nM; in [7], 4320 nM. Moreover, the TGI was above 100000 nM in [8], 4120 nM in test [9] and 2300 nM in test [10].
